In patent US20100273722A1, “MODIFIED MINIATURE PROTEINS” (Yale University, priority 2007, published 2010):
No end group written: not given here.

Legend:
c-Src SH3^P133L = c-Src SH3^P133L (Gallus gallus, UniProt P00523, P133L); test: Fluorescence polarization direct binding assay, c-Src SH3^P133L; set-up: species or system chicken
Description: (§1) Polarization was measured by excitation with vertically polarized light at 485 nm and the fluorescence emission detected at 530 nm in both the vertical and horizontal directions. An average of five measurements were recorded for each well. Samples were equilibrated at room temperature for 25 min before analysis, a time sufficient for the binding reactions to reach equilibrium. The polarization data were fit using Kaleidagraph v3.6 software to Eq. 5, which is derived from first principles without assumptions. […] In this equation, Pobs is the observed polarization value at any given concentration of target protein (GST•SH3 domain). Pmin is the polarization of peptide^Flu at 50 nM in the absence of target protein. Pmax is the maximum polarization of peptide^Flu at saturation with target protein. Kd is the equilibrium dissociation constant. […] Free fits are shown. Kd values were estimated as described.

[1] = molecular target: c-Src SH3 domain-GST fusion protein (Gallus gallus, UniProt P00523); test: Fluorescence polarization direct binding assay, c-Src SH3; set-up: species or system chicken
Description: as §1

[2] = molecular target: Hck SH3 domain-GST fusion protein (Homo sapiens, UniProt P08631); test: Fluorescence polarization direct binding assay, Hck SH3
Sequence of Hck SH3 domain-GST fusion protein (P08631 77-137): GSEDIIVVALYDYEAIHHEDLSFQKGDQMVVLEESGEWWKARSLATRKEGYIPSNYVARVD
Description: as §1

[3] = molecular target: Fyn SH3 domain-GST fusion protein (Homo sapiens, UniProt P06241); test: Fluorescence polarization direct binding assay, Fyn SH3
Sequence of Fyn SH3 domain-GST fusion protein (P06241 81-142): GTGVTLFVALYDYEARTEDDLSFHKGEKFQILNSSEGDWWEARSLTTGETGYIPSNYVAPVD
Description: (§2) Polarization was measured by excitation with vertically polarized light at 485 nm and the fluorescence emission detected at 530 nm in both the vertical and horizontal directions. An average of five measurements were recorded for each well. Samples were equilibrated at room temperature for 25 min before analysis, a time sufficient for the binding reactions to reach equilibrium. The polarization data were fit using Kaleidagraph v3.6 software to Eq. 5, which is derived from first principles without assumptions. […] In this equation, Pobs is the observed polarization value at any given concentration of target protein (GST•SH3 domain). Pmin is the polarization of peptide^Flu at 50 nM in the absence of target protein. Pmax is the maximum polarization of peptide^Flu at saturation with target protein. Kd is the equilibrium dissociation constant. […] In these cases a lower limit Kd was estimated by setting Pmax equal to the observed polarization at the highest target protein concentration tested, which was often limited by solubility. […] Free fits are shown. Kd values were estimated as described. […] In several cases, the plots of polarization versus [SH3 domain] began to increase at high [SH3 domain] (>50 micromolar), perhaps because of a second binding event. In these cases (indicated by an asterisk (*) in Table 5), data above 50 micromolar target protein was excluded during the curve fits.

[4] = molecular target: Lyn SH3 domain-GST fusion protein (Homo sapiens, UniProt P07948); test: Fluorescence polarization direct binding assay, Lyn SH3
Sequence of Lyn SH3 domain-GST fusion protein (P07948 62-122): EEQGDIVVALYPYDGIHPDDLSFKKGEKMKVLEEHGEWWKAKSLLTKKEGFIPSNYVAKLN
Description: as §2

[5] = molecular target: Lck SH3 domain-GST fusion protein (Homo sapiens, UniProt P06239); test: Fluorescence polarization direct binding assay, Lck SH3
Sequence of Lck SH3 domain-GST fusion protein (P06239 62-128): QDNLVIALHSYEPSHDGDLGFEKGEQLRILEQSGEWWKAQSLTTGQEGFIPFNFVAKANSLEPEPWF
Description: as §2

[6] = pH- and temperature-dependent; read-out: equilibrium dissociation constant (Kd) of the aPP dimer; cited from earlier work
[7] = Sedimentation equilibrium analytical ultracentrifugation of aPP variants, monomer-n-mer fit (self-association); assay type: physicochemical; conditions: for % monomer at 30 μM: 30 μM peptide; for % monomer at 30 μM / lnKA when n = 2 / n (stoichiometry of the self-associated complex): 25° C.; for lnKA when n = 2: monomer-dimer; for n (stoichiometry of the self-associated complex): monomer-n-mer fit; for Kd (self-association, dimer): n = 2, 25° C., calculated from ln KA
Description: Analytical ultracentrifugation experiments were performed using peptide solutions prepared in Tris.Cl buffer (25 mM Tris base, 50 mM NaCl, (pH 8.0)) at the appropriate concentrations (5 micromolar to 200 micromolar). Samples were then centrifuged to equilibrium at 25° C. at 42,000, 50,000, and 60,000 rpm. Data were collected with a 0.001 cm step size and successive scans were initiated at 2 h intervals. Samples were judged to have reached equilibrium when the radial concentration gradient remained unchanged over three successive scans using the Match module of Heteroanalysis software v1.1.19. The solvent density (ρ, rho) and partial specific volume ( ν, nu) were calculated using the Sedimentation Interpretation Program “Sednterp” software v1.08.
The data for each peptide (multiple concentrations at three speeds) was first fit globally to an equation describing the sedimentation of an ideal species of molecular weight Mn (Eq. 1) using Heteroanalysis software v1.1.19:
where C represents the concentration of the sedimenting species at distances r and r0 cm from the center of rotation; ν (nu) is the partial specific volume of the sedimenting species in cc/g; ρ (rho) is the density of the supporting buffer in g/cc; ω (omega) is the angular velocity of the rotor (radians/s); Mn is the “molar” molecular weight of sedimenting species (g/mol); R is the universal gas constant (8.315×10^7 ergs K^−1 mol^−1) and T is the temperature in degrees Kelvin.
In order to quantify this self-association, the data for each peptide was next fit globally to a monomer-n-mer equilibrium model using Eq. 2:
where n is the stoichiometry of the self-associated complex. Errors were calculated for n and lnKA using f-statistics to two standard deviations.
Samples were prepared in PBS buffer and centrifuged at speeds of 42,000 (41), 50,000 (42), or 60,000 RPM (43) at 25° C. Experimental data are shown as points; lines indicate the best fit to a monomer-n-mer model described by Eq. 2.

[8] = Circular dichroism (wavelength- and temperature-dependent) of aPP variants, Example 1; assay type: physicochemical; conditions: 30 micromolar; for CD ellipticity at 222 nm: Tris buffer pH 8.0, 25° C.
Description: The CD spectra of each peptide (30 micromolar) were acquired in Tris buffer (25 mM Tris base, 50 mM NaCl, (pH 8.0)) at 25° C. in a 2 mm cell. Samples were scanned between 200 and 260 nm, with signal sampling every 0.5 nm, and three successive scans were averaged. Molar residue ellipticity values were calculated from the equation MRE=(Θsample−Θbuffer)/(L×c×n×1000), where Θ is the observed signal in millidegrees, L is the length of the cuvette in cm, c is the concentration of peptide in dmol cm^−3 and n is the number of amino acids in the molecule.
Temperature-dependent CD spectra of aPP^Y7AP13SV14P (30 micromolar) were acquired in Dulbecco's PBS (1 mM KH2PO4, 155 mM NaCl, 3 mM Na2HPO4, (pH 7.4)) in a 2 mm cell. The signal at 222 nm (MRE222) was monitored between 1° C. and 80° C. using the variable temperature module provided with the instrument. Data were collected with a 0.5° C. data pitch, 5 s delay time, 20° C./hour temperature slope, 4 s response, and 1 nm bandwidth. CD spectra were obtained as the temperature was raised and when the temperature was lowered to establish the reversibility of the folding transition. Additionally, a full wavelength scan was obtained before and after the thermal melt; an overlay of the two spectra is shown in FIG. 3A. […] Mean residue ellipticity values for the temperature dependent CD spectrum were calculated from the equation MRE=Θ222 nm/(L×c×n×1000), where Θ is observed signal at 222 nm (mdeg), L is the length of, the cuvette (cm), c is the concentration of peptide (dmol/cm^3) and n is the number of amino acids in the molecule. The first derivatives of the temperature-dependent CD spectra are shown in FIG. 3B, which is a plot of δMRE222/δT (units of deg cm^2 dmol^−1 K^−1). The Tm value reported in the main text corresponds to the temperature at which ∂MRE222/∂T is a maximum.

[9] = Temperature-dependent sedimentation equilibrium of aPP^Y7AP13SV14P, monomer-dimer-tetramer fit; assay type: physicochemical; conditions: for % monomer: at 30 micromolar total peptide concentration; for ln KA (m): m fixed to 4 (tetramer), PBS
Description: aPP^Y7AP13SV14P samples were prepared in Dulbecco's PBS buffer (as described above) at concentrations of 45, 90, and 180 micromolar. Sedimentation equilibrium experiments were performed as described above and monitored at 280 nm. Samples were centrifuged to equilibrium at three speeds (42,000, 50,000, and 60,000 rpm) at 5, 10, 15, 20, 25, and 30° C. The rotor containing the samples was agitated manually between temperature runs to redistribute the sample along the length of the cell and checked by an initial scan.
The sedimentation data obtained for aPP^Y7AP13SV14P at each temperature was globally fit to Eq. 2 as described above. […] Therefore, the data from within each temperature set was then globally fit to a monomer-n-mer-m-mer model. Based on the self-association trends of the other aPP variants, in which the folded peptides best fit to a monomer-dimer model and the unfolded peptides fit to a monomer-tetramer model, the values for n and m were fixed to 2 and 4 respectively. Data fit with these parameters and the resulting residuals are presented in FIG. 5 and a summary of the fitted parameter results are given in Table 3. […] Samples were prepared in PBS buffer (90 micromolar) and centrifuged to equilibrium at speeds of 42,000 (51), 50,000 (52), and 60,000 (53) rpm.

In the case of `CC(C)C[C@H](NC(=O)[C@@H]1CCCN1C(=O)[C@@H]1CCCN1C(=O)[C@H](C)NC(=O)CNC(=O)CNC(=O)[C@@H](N)CSCC(=O)Nc1ccc2c(c1)C(=O)OC21c2ccc(O)cc2Oc2cc(O)ccc21)C(=O)N1CCC[C@H]1C(=O)N1CCC[C@H]1C(=O)N[C@@H](CCCNC(=N)N)C(=O)N[C@@H](CC(N)=O)C(=O)N[C@@H](CCCNC(=N)N)C(=O)N1CCC[C@H]1C(=O)N[C@@H](CCCNC(=N)N)C(N)=O` [^Flu1], the Kd (c-Src SH3^P133L) is reported as greater than 100000 nM, the Kd [1] is reported as 1500 ± 100 nM and the Kd [2] is reported as 1600 ± 200 nM. It also gave a Kd [3] of 1400 ± 200 nM, a Kd [4] of 2000 ± 300 nM and a Kd [5] greater than 20000 nM.
In the case of “avian pancreatic polypeptide (GPSQPTYPGDDAPVEDLIRFYDNLQQYLNVVTRHRY; ends and bridges not checked) [aPP, purchased from American Peptide Company, reference compound]”, the Kd [6] is given as 0.4 to 5000 nM, the “% monomer at 30 μM” value [7] is given as 23% and the “% in the dimer state at 30 micromolar” value ([7]; 30 micromolar) is given as greater than 94%. The “lnKA when n = 2” value [7] was “when n = 2 12.41”, the “n (stoichiometry of the self-associated complex)” value [7] was 1.92 and the “Kd (self-association, dimer)” value [7] was 4100 nM.
For “GPSQPTYPGDDAPVEDLIRFADNLQQYLNVVTRHRY [aPP^Y21A]”, the “% monomer at 30 μM” value [7] was 14%, the “lnKA when n = 2” value [7] was “when n = 2 13.57” and the “n (stoichiometry of the self-associated complex)” value [7] was 1.86. The “Kd (self-association, dimer)” value [7] was 1300 nM and the CD ellipticity at 222 nm [8] was -14700 deg cm^2 dmol^−1.
For “GPSQPTAPGDDASPEDLIRFYDNLQQYLNVVTRHRY [aPP^Y7AP13SV14P]”, the “n (monomer-n-mer fit, Eq. 2)” value ([9]; 5° C.) was 2.5, the “% monomer” value ([9]; 5° C.) was 74% and the “ln KA (m)” value ([9]; 5° C.) was 25.7 (25.3, 26.0). For the same compound, the “% monomer” value ([9]; 10° C.) was 82%, the “ln KA (m)” value ([9]; 10° C.) was 25.3 (25.0, 25.5) and the “% monomer” value ([9]; 15° C.) was 84%. For the same compound, the “ln KA (m)” value ([9]; 15° C.) was 25.6 (25.4, 25.8), the “% monomer” value ([9]; 20° C.) was 90% and the “ln KA (m)” value ([9]; 20° C.) was 25.0 (24.8, 25.2). For the same compound, the “KD (tetramer, monomer/dimer/tetramer model)” value ([9]; 25° C.) was 6.8×10^−12 M^3, the “% dimer” value ([9]; 25° C., at 30 micromolar) was 9% and the “% tetramer” value ([9]; 25° C., at 30 micromolar) was 1%. The “% monomer” value ([9]; 25° C.) was 90%, the “ln KA (m)” value ([9]; 25° C.) was 25.7 (25.4, 26.0) and the “n (monomer-n-mer fit, Eq. 2)” value ([9]; 30° C.) was 3.6. The “% monomer” value ([9]; 30° C.) was 98%, the “ln KA (m)” value ([9]; 30° C.) was 24.4 (24.2, 24.5) and the CD ellipticity at 222 nm [8] was -9700 deg cm^2 dmol^−1. For the same compound, the “Tm (cooperative unfolding transition)” value ([8]; temperature-dependent CD at 222 nm) was 20 °C.
